Data on 16 compounds can be found in US20260174769A1, “MACROCYCLIC COMPOUNDS AND METHODS OF USE” (AMGEN INC., priority 2022, published 2026).

pIC50: −log10 of the molar value. Where a name gives a salt, the structure may show the parent alone. Read-outs that look alike come from different tables or passages of the source.

Data set [1] concerns AsPC-1 cells. Briefly: AsPC-1 CTG Assay (CellTiter-Glo cell viability, 72 h). Particulars: read-out: G12D/C/V Cell Proliferation CTG (72 h) AsPC-1. It counts as cell-based, human. As for the experimental part:
AsPC-1 and SW620 CTG Assay Protocols
Serially-diluted compound or DMSO was added to the cells, and plates were incubated at 37° C., 5% CO2 for 72 h. Cell viability was measured using a CellTiter-Glo® Luminescent Cell Viability Assay kit (Promega) according to the manufacturer's protocol. The luminescence signal of treated samples was normalized to DMSO control, and data were analyzed using a 4-parameter logistic model to calculate IC50 values.
In general terms: Cellular ATP, detected with luciferase, serves as a proxy for viable cell number.

Data set [2] concerns Phosphorylation of ERK1/2 in AsPC-1 cells. Briefly: Phospho-ERK1/2 MSD Assay. The data set is classed as cell-based, human. The conditions noted are these: read-out: 2 h p-ERK (AsPC-1 cells), IC50. On the procedure: Sixteen hours prior to compound treatment, AsPC-1 cells were seeded in 96-well cell culture plates at a density of 25,000 cells/well and incubated at 37° C., 5% CO2. A compound dose-response titration was diluted in growth media, added to appropriate wells of a cell culture plate, and then incubated at 37° C., 5% CO2 for 2 hours. […] Phosphorylation of ERK1/2 in compound-treated lysates was assayed using Phospho-ERK 1/2 Whole Cell Lysate kits (Meso Scale Discovery K151DWD) according to the manufacturer's protocol. Assay plates were read on a Meso Scale Discovery Sector Imager 6000, and data were analyzed using a 4-parameter logistic model to calculate IC50 values.

Data set [3] concerns the target His-tagged KRAS G12D protein (Homo sapiens, UniProt P01116, G12D). Briefly: KRAS G12D TR-FRET Assay. The data set is classed as binding. In outline:
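GDP-loaded His-KRAS G12D (20 nM in HEPES pH 7.4, MgCl2, NaCl, BSA, Tween-20, 10 μM GDP) preincubated with compound 30 min at room temperature, then 20 nM biotinylated KRPep-2d peptide added for 1 h. TR-FRET detection used Eu anti-His and streptavidin-d2, read after 1 h.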
(In TR-FRET formats the signal depends on donor and acceptor labels being close together.)

Data set [4] deals with GDP-bound KRAS protein (aa 1-169), containing both G12D and C118A amino acid substitutions (Homo sapiens, UniProt P01116, C118A/G12D). Briefly: KRAS G12D Coupled Nucleotide Exchange Assay. It counts as biochemical. On the procedure: KRAS G12D Coupled Nucleotide Exchange Assay
The assay plates were then read on a PerkinElmer En Vision Multilabel Reader, using AlphaScreen® technology, and data were analyzed using a 4-parameter logistic model to calculate IC50 values.

For data set [5] the following is noted: 16-membered ring.
The mark [6] stands for this setting: Homo sapiens, ASPC1, 72 h, AsPC-1 cells, 72 h, first value of cell.
[7] abbreviates: Homo sapiens, ASPC1, 2 h, AsPC-1 cells, 2 h compound treatment.
The mark [8] stands for this setting: 2 hours compound pre-incubation, SOS-mediated nucleotide exchange.
Where [9] appears, read: Homo sapiens, ASPC1, 72 h, AsPC-1 cells, 72 h, first value of the cell.
Setting [10] is: Homo sapiens, ASPC1, 2 h, AsPC-1 cells, 2 h.
Where [11] appears, read: read-out: KRAS G12D Binding IC50.

For the compound `O=C1OCCCc2c(Cl)cccc2-c2ncc3c(nc(OC[C@@]45CCCN4C[C@H](F)C5)nc3c2F)N2CCOC[C@H](C2)O1` [Example 186, (23S)-15-chloro-29-fluoro-4-(((2R,7aS)-2-fluorotetrahydro-1H-pyrrolo[1,2-a]pyrrol-7a(5H)-yl)methoxy)-20,22,25-trioxa-1,3,5,9-tetraazapentacyclo[21.4.1.1~6,10~.0~2,7~.0~11,16~]nonacosa-2,4,6,8,10(29),11,13,15-octaen-21-one], the pIC50 in data set [1] (setting [6]) was 5.71; in data set [2] (setting [7]) it was 6.70; in data set [3] (TR-FRET binding), 7.92.
Regarding `C[C@@]12COCCN(C1)c1nc(OC[C@@]34CCCN3C[C@H](F)C4)nc3c(F)c(ncc13)-c1c(c(F)cc3[nH]ncc13)CCCOC(=O)O2` [Example 184, (26S)-18,32-difluoro-4-(((2R,7aS)-2-fluorotetrahydro-1H-pyrrolo[1,2-a]pyrrol-7a(5H)-yl)methoxy)-26-methyl-23,25,28-trioxa-1,3,5,9,14,15-hexaazahexacyclo[24.4.1.1~6,10~.0~2,7~.0~11,19~.0~12,16~]dotriaconta-2,4,6,8,10(32),11,13,16,18-nonaen-24-one], the pIC50 is 6.92 in data set [1] (setting [6]), 7.93 in data set [2] (setting [7]) and 8.40 in data set [3] (TR-FRET binding). The IC50 – broadly, the concentration at which inhibition is half-maximal – in data set [4] (setting [8]) worked out at 2 nM.
Regarding `CC1COC(=O)C[C@@H]2CCCN(C2)c2nc(OC[C@@]34CCCN3C[C@H](F)C4)nc3c(F)c(ncc23)-c2c(c(Cl)cc3[nH]ncc23)C1` (some centres unmarked) [Example 91], the values for the pIC50 in data set [1] (setting [6]), in data set [2] (setting [7]) and in data set [3] (TR-FRET binding) were 6.55, 7.57 and 8.40, respectively. The compound also yielded an IC50 in data set [4] (setting [8]) of 2 nM.
In the case of `O=C1CCCc2c(F)ccc3cccc(c23)-c2ncc3c(nc(OC[C@@]45CCCN4C[C@H](F)C5)nc3c2F)N2CCC[C@H](C2)N1`, the ring closure, yield after HPLC in data set [5] (from N[C@@H]1CCCN(c2nc(OC[C@@]34CCCN3C[C@H](F)C4)nc3c(F)c(-c4cccc5ccc(F)c(CCCC(=O)O)c45)ncc23)C1, amide bond, HATU/DIEA, DMF, 5.9 mM, 0.5 h, 2 steps) was determined as 30%.
As for `O[C@H]1C[C@@H]2CN(C1)c1nc(OC[C@@]34CCCN3C[C@H](F)C4)nc3c(F)c(ncc13)-c1c(c(Cl)cc3[nH]ncc13)CCCc1nc2no1` [Example 378, (18R,20S)-9-chloro-31-fluoro-25-(((2R,7aS)~2-fluorotetrahydro-1H-pyrrolo[1,2-α]pyrrol-7a(5H)-yl)methoxy)-15-oxa-5,6,16,22,24,26,30,33-octaazaheptacyclo[25.3.1.1~14,17~.1~18,22~.0~2,10~0~3,7~.0~23,28~]tritriaconta-1(31),2,4,7,9,14(33),16,23,25,27,29-undecaen-20-ol], the pIC50 in data set [1] (setting [9]) is 6.11; in data set [2] (setting [10]) it was 7.32.
In the case of `Cc1cc2[nH]ncc2c2c1CCCOC(=O)CC1CCCN(C1)c1nc(OC[C@@]34CCCN3C[C@H](F)C4)nc3c(F)c-2ncc13` (some centres unmarked) [Example 39], the pIC50 in data set [1] (setting [6]) is 6.72; in data set [2] (setting [7]) it was 7.80.
For the compound “(185)-9-chloro-31-fluoro-25-(((2R,7a.S)-2-fluorotetrahydro-LH-pyrrolo[1,2-α]pyrrol-7a(5H)-yl)methoxy)-15-oxa-5,6,22,24,26,30,33-heptaazaheptacyclo[25.3.1.1~13,16~1~18,22~0~2,10~.0~3,7~.0~23,28~]tritriaconta-1(31),2,4,7,9,13,16(33),23,25,27,29-undecaene [Example 388]”, the results for the pIC50 in data set [2], in data set [4] and in data set [3] (setting [11]) were 6.58, 8.30 and 7.89, respectively.
Turning to `O=C1OCCCc2c(Cl)cc3[nH]ncc3c2-c2ncc3c(nc(OC[C@@]45CCCN4C[C@H](F)C5)nc3c2F)N2CCC[C@]3(C2)C[C@H](C3)O1` [Example 323, (1R,3S)-11-chloro-33-fluoro-25-(((2R,7aS)-2-fluorotetrahydro-1H-pyrrolo[1,2-a]pyrrol-7a(5H)-yl)methoxy)-4,6-dioxa-14,15,20,24,26,28-hexaazaheptacyclo[26.3.1.1~1,3~.1~19,23~.0~10,18~.0~13,17~.0~22,27~]tetratriaconta-10,12,15,17,19(33),20,22,24,26-nonaen-5-one], the pIC50 was 6.50 in data set [1] (setting [6]) and 7.52 in data set [2] (setting [7]).
As to `CSc1nc2c3cnc(c(C)c3n1)-c1cc(O)cc3ccc(F)c(c13)CCCC(=O)N[C@]1(C)CCCN2C1`, in data set [5] (from CSc1nc(N2CCC[C@@](C)(N)C2)c2cnc(-c3cc(O)cc4ccc(F)c(CCCC(=O)O)c34)c(C)c2n1, amide bond, HATU, then Me2NH, DCM/DMA/DMF, 5.6 mM, 25.0 °C), the ring closure, yield after HPLC was found to be 32%.
For the compound `O[C@H]1C[C@@H]2CN(C1)c1nc(OC[C@@]34CCCN3C[C@H](F)C4)nc3c(F)c(ncc13)-c1c(c(Cl)cc3[nH]ncc13)CCCc1nc2no1` (racemic) [Example 377, (rac-18R,20S)-9-chloro-31-fluoro-25-(((2R,7a.S)-2-fluorotetrahydro-1H-pyrrolo[1,2-a]pyrrol-7a(5H)-yl)methoxy)-15-oxa-5,6,16,22,24,26,30,33-octaazaheptacyclo[25.3.1.1~14,17~.1~18,22~.0~2,10~0~3.7~.0~23,28~]tritriaconta-1(31),2,4,7,9,14(33),16,23,25,27,29-undecaen-20-ol], the pIC50 was 6.90 in data set [1] (setting [9]); 8.00 in data set [2] (setting [10]); 8.30 in data set [3] (TR-FRET, read-out: KRAS G12D Binding IC50).
Consider `C[C@@]12CCCN(C1)c1nc(OC[C@@]34CCCN3C[C@H](F)C4)nc3c(F)c(ncc13)-c1cc(O)cc3ccc(F)c(c13)CCCC(=O)O2` [Example 43, (15R)-22,31-Difluoro-8-(((2R,7aS)-2-fluorotetrahydro-1H-pyrrolo[1,2-a]pyrrol-7a(5H)-yl)methoxy)-27-hydroxy-15-methyl-16-oxa-3,7,9,11-tetraazahexacyclo[19.7.1.1˜2,6˜.1˜11,15˜.0˜5,10˜.0˜25,29˜]hentriaconta-1(28),2(31),3,5,7,9,21,23,25(29),26-decaen-17-one bis(2,2,2-trifluoroacetate)], for which the pIC50 in data set [1] (setting [6]) is 7.04; in data set [2] (setting [7]) it was 7.89; in data set [3] (TR-FRET binding) it was 8.40. Also, the IC50 in data set [4] (setting [8]) came out at 2 nM.
`CN1C(=O)OCCCc2c(Cl)cc3[nH]ncc3c2-c2ncc3c(nc(OC[C@@]45CCCN4C[C@H](F)C5)nc3c2F)N2CCC[C@@H]1C2` gave a ring closure, yield after HPLC in data set [5] (from CN(C(=O)OCCCc1c(Cl)cc2[nH]ncc2c1-c1ncc2c(O)nc(OC[C@@]34CCCN3C[C@H](F)C4)nc2c1F)[C@@H]1CCCNC1, snar bond, PyBroP/DIEA, MeCN/DMSO, 11.7 mM, 25.0 °C, 2 steps) of 14%.
With `Cc1cc2[nH]ncc2c2c1CCCCOCC1CN(CCC1(F)F)c1nc(OC[C@@]34CCCN3C[C@H](F)C4)nc3c(F)c-2ncc13` (stereo partly drawn) [Example 227, (17R)-18,18,30-trifluoro-24-(((2R,7aS)-2-fluorotetrahydro-1H-pyrrolo[1,2-α]pyrrol-7a(SH)-yl)methoxy)-9-methyl-15-oxa-5,6,21.23,25,29-hexaazahexacyclo[24.3.1.1~17,21~.0~2,10~.0~3.7~.0~22,27~]hentriaconta-1(30),2,4,7,9,22,24,26,28-nonaene], the pIC50 is 5.41 in data set [1], 6.21 in data set [2], 7.92 in data set [4] and 7.46 in data set [3] (setting [11]).
With `Cc1cc2[nH]ncc2c(-c2ncc3c(O)nc(OC[C@@]45CCCN4C[C@H](F)C5)nc3c2F)c1CCOC(=O)OC[C@@H]1CCCNC1`, the ring closure, yield after HPLC in data set [5] (the molecule shown is the open-chain precursor, snar bond) is 20%.
`O[C@@H]1C[C@H]2COCCCCc3c(Cl)cc4[nH]ncc4c3-c3ncc4c(nc(OC[C@@]56CCCN5C[C@H](F)C6)nc4c3F)N(C1)C2` (mixture of isomers) [Example 408, 2,2,2-trifluoroacetate salt]: the pIC50 was 7.28 in data set [2], 7.74 in data set [4] and 7.62 in data set [3] (setting [11]).
Regarding `O=C1CCCCc2c(Cl)cc3[nH]ncc3c2-c2ncc3c(nc(OC[C@@]45CCCN4C[C@H](F)C5)nc3c2F)N2CCC3CCN1[C@H]3C2` (mixture of isomers) [Example 60], the figures for the pIC50 in data set [2] (setting [7]), in data set [4] (setting [8]) and in data set [3] (TR-FRET binding) were 7.92, 8.22 and 7.89, respectively.
